Earlier results on 25 molecules are cited in patent US20130281387A1, “Chemosensory Receptor Ligand-Based Therapies” (ELCELYX THERAPEUTICS, INC., priority 2010, published 2013).

SMILES strings stand for the structures.

The test system of the first data set is gut hormones. As to conditions: humans, after administration.
Regarding `C=C1C[C@@]23CC[C@H]4[C@@](C)(CCC[C@@]4(C)C(=O)O[C@@H]4O[C@H](CO)[C@@H](O)[C@H](O)[C@H]4O)[C@@H]2CC[C@]1(O[C@@H]1O[C@H](CO)[C@@H](O)[C@H](O[C@@H]2O[C@H](CO)[C@@H](O)[C@H](O)[C@H]2O)[C@H]1O[C@@H]1O[C@H](CO)[C@@H](O)[C@H](O)[C@H]1O)C3` [Rebaudioside A], the “gut hormones in the circulation” value is “no alterations”.

For another data set, the system named is bitter receptor. As to conditions: bitter phytonutrients in common plant foods.
On to `C=CCC(=NOS(=O)(=O)O)S[C@@H]1O[C@H](CO)[C@@H](O)[C@H](O)[C@H]1O` (stereo in doubt) [Sinigrin], for which the Taste quality entry is “Bitter”.
Take `C[S+]([O-])CCCN=C=S` (stereo not shown) [3-Methyl-sulfinylpropyl isothiocyanate]: the Taste quality result is listed as “Acrid mustard oils”.
Consider `C[S+]([O-])CCCCN=C=S` (stereo not shown) [4-Methylsulfinyl butyl isothiocyanate], for which the Taste quality entry was “Acrid mustard oils”.
Regarding `C=CCN=C=S` [Allyl-isothiocyanate], the Taste quality result was “Acrid mustard oils;”.
For `S=C=NCc1ccccc1` [Benzyl isothiocyanate], the Taste quality entry is listed as “Acrid mustard oils;”.
Consider `O=c1c(-c2ccc(O)cc2)coc2cc(O[C@@H]3O[C@H](CO)[C@@H](O)[C@H](O)[C@H]3O)ccc12` [Daidzin], for which the Taste quality result is recorded as “Astringent”.
As for `O=C(O[C@@H]1Cc2c(O)cc(O)cc2O[C@@H]1c1ccc(O)c(O)c1)c1cc(O)c(O)c(O)c1` [Epicatechin gallate], the Taste quality entry was “Bitter and astringent”.
With `O=C(O[C@@H]1Cc2c(O)cc(O)cc2O[C@@H]1c1cc(O)c(O)c(O)c1)c1cc(O)c(O)c(O)c1` [Epigallocatechin gallate], the Taste quality entry is reported as “Bitter with sweet”.
Take `Oc1cc(O)c2c(c1)O[C@H](c1cc(O)c(O)c(O)c1)[C@H](O)C2` [Epigallocatechin]: the Taste quality result was “Bitter with sweet”.
As for `O=c1c(-c2ccc(O)cc2)coc2cc(O)cc(O)c12` [Genistein], the Taste quality entry was “Bitter or astringent”.
With `O=c1c(-c2ccc(O)cc2)coc2cc(O[C@@H]3O[C@H](CO)[C@@H](O)[C@H](O)[C@H]3O)cc(O)c12` [Genistin], the Taste quality result is reported as “Astringent”.
Turning to `O=S(=O)(O)ON=C(Cc1c[nH]c2ccccc12)S[C@@H]1O[C@H](CO)[C@@H](O)[C@H](O)[C@H]1O` [Glucobrassicin], the Taste quality result is reported as “Bitter”.
For the molecule `C=CC1CNC(=S)O1` (stereo not shown) [Goitrin, Goitrin 5-vinyl-2-oxazolidine thione], the Taste quality result is on record as “Bitter”.
As to `CC1(C)O[C@H]2CC(=O)OC[C@]23[C@H]2CC[C@@](C)([C@@H](O[C@@H]4O[C@H](CO)[C@@H](O)[C@H](O)[C@H]4O)c4ccoc4)[C@@]4(O[C@@H]4C(=O)O)[C@]2(C)C(=O)C[C@@H]13` [Limonin glucoside], the Taste quality entry is on record as “Tasteless”.
As for `CC1(C)O[C@H]2CC(=O)OC[C@]23[C@H]2CC[C@@]4(C)[C@H](c5ccoc5)OC(=O)[C@H]5O[C@]54[C@]2(C)C(=O)C[C@@H]13` [Limonin], the Taste quality result was “Bitter”.
Take `C[C@@H]1O[C@@H](O[C@H]2[C@H](Oc3cc(O)c4c(c3)O[C@H](c3ccc(O)cc3)CC4=O)O[C@H](CO)[C@@H](O)[C@@H]2O)[C@H](O)[C@H](O)[C@H]1O` [Naringin]: the Taste quality entry is listed as “Bitter”.
`COc1ccc(-c2cc(=O)c3c(OC)c(OC)c(OC)c(OC)c3o2)cc1OC` [Nobiletin]: the Taste quality entry is reported as “Bitter”.
On to `CC(=O)O[C@H]1CC(=O)OC(C)(C)[C@@H]2CC(=O)[C@]3(C)[C@H](CC[C@@]4(C)[C@H](c5ccoc5)OC(=O)[C@H]5O[C@]543)[C@@]12C` [Nomilin], for which the Taste quality result is reported as “Bitter”.
On to `C=C[C@H](O)CC(=NOS(=O)(=O)O)S[C@@H]1O[C@H](CO)[C@@H](O)[C@H](O)[C@H]1O` [Progoitrin], for which the Taste quality entry is “Bitter”.
Turning to `O=c1c(O)c(-c2ccc(O)c(O)c2)oc2cc(O)cc(O)c12` [Quercetin], the Taste quality entry is recorded as “Bitter”.
As for `COc1ccc(-c2cc(=O)c3c(OC)c(OC)c(OC)cc3o2)cc1OC` [Sinensetin], the Taste quality result is “Bitter”.
In the case of `COc1ccc(-c2cc(=O)c3c(OC)c(OC)c(OC)c(OC)c3o2)cc1` [Tangeretin], the Taste quality result was “Bitter”.
Take `O=c1c(-c2ccc(O)cc2)coc2cc(O)ccc12` [daidzein]: the Taste quality result was “Bitter or astringent”.

The next data set relates to GLP-1. Particulars: humans, after administration.
For the molecule `OCCN1C[C@H](O)[C@@H](O)[C@H](O)[C@H]1CO` [miglitol], the “post-prandial GLP-1 levels” value is reported as “increase”.
